Assay results published in US20190225650A1, “PEPTIDOMIMETIC MACROCYCLES AND USE THEREOF IN REGULATING HIF1ALPHA” (AILERON THERAPEUTICS, INC., priority 2013, published 2019).
Bridge positions count the residues as written; N and C are the ends. Square brackets hold non-standard residues; d marks the D form. Peptide text beside a SMILES is read from it. R8 = C=CCCCCCC[C@@](C)(N)C(=O)O; S5 = C=CCCC[C@](C)(N)C(=O)O; Nle = CCCC[C@H](N)C(=O)O

What was measured:
[1] = molecular target: T1, flag-tagged HIF1α (AA 786-826) / His6-tagged p300 (AA 323-423) complex (Homo sapiens, UniProt Q09472); assay: HIF1α p300 displacement assay (TR FRET, +CHAPS); assay type: binding; conditions: read-out: IC50 (nM) (HIF1α_p300 Displacement + CHAPS)
T1 construct: His6-tagged p300 (AA 323-423); made in house; host or cells: E. coli (pETDuet vector)
Outline: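 The co-expressed flag-HIF1α (786-826)/His6-p300 (323-423) complex, purified from E. coli with 0.1 mM ZnSO4, was used at 300 nM final with competitor peptides for 1 h at room temperature. Buffer was 150 mM NaCl, 20 mM HEPES pH 7.4, 7.5 mM CHAPS and 1 mM DTT. Anti-Flag-K (0.5 μM) and anti-His-D2 (4 nM) were then added for 2 h, and IC50s were fitted from the TR-FRET ratio.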

[2] = test system: HRE-bla ME-180 cells; assay: Reporter gene assay (HRE-bla ME-180 HIF reporter, GeneBLAzer); assay type: cell-based, human; conditions: for EC50: 24 hour normoxia
Outline: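 A FRET β-lactamase readout of HIF transcription was used. After compound treatment in 0.3% DMSO/media under normoxic conditions, 20 μl of 6× LiveBLAzer-FRET B/G (CCF4-AM) substrate was added. Plates sat 3 hr at room temperature in the dark and were read at 409 Ex/460Em and 409Ex/530Em on a Synergy 2. Inhibition was compared against DMSO vehicle controls, with chetomin as positive control.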

[3] = test system: HRE-bla ME-180 cells; assay: Cell proliferation assay (viability, MTT, 1% FBS); assay type: cell-based, human
Outline: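 ME-180 cells (2×10^4/well) in Opti-MEM with 1% FBS were pretreated 16 h under normoxia (21% O2), vehicle 0.5% DMSO final. Incubation then continued under normoxia or hypoxia (1% O2); viable cells quantified by MTT-type CellTiter 96 assay.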

| Compound | IC50 [1] [nM] | EC50 [2] [µM] | 18 h Avg % max inhibition at top conc (HIF Rptr-24 hrs normoxia) (μM) [2] | Viability 1% FBS AVG (MTT V3-24 hr Normoxia) (μM) [3] |
| --- | --- | --- | --- | --- |
| CCCC[C@H](NC(=O)[C@H](CCC(=O)O)NC(=O)[C@]1(C)CCCC=CCCCCCC[C@@](C)(NC(=O)[C@H](CCC(=O)O)NC(=O)[C@H](C)NC(=O)[C@@H](NC(=O)[C@H](Cc2ccccc2)NC(C)=O)[C@@H](C)CC)C(=O)N[C@@H](C(C)C)C(=O)N[C@@H](CC(C)C)C(=O)N[C@@H](CCCC)C(=O)N[C@@H](CO)C(=O)N[C@@H](CC(C)C)C(=O)N[C@@H](C(C)C)C(=O)N1)C(=O)N[C@@H](C)C(=O)N[C@@H](CC(C)C)C(N)=O [SP-197] (Ac-FIAE[R8]VL[Nle]SLV[S5]E[Nle]AL-NH2; staple 5-12) | > 700 | 5 to 15 | ++++ (≥50: ++++) | ++++ (≥30: ++++) |
| CCCC[C@H](NC(=O)[C@H](CC(C)C)NC(=O)[C@@H](NC(=O)[C@H](CCC(=O)O)NC(=O)[C@H](CCC(=O)O)NC(=O)[C@H](C)NC(=O)[C@@H](NC(=O)[C@H](Cc1ccccc1)NC(C)=O)[C@@H](C)CC)C(C)C)C(=O)N[C@@]1(C)CCCC=CCCC[C@@](C)(C(=O)N[C@@H](CCCC)C(=O)N[C@@H](C)C(=O)N[C@@H](CC(C)C)C(=O)N[C@@H](CC(=O)O)C(=O)N[C@@H](C)C(=O)N[C@H](C(N)=O)[C@@H](C)CC)NC(=O)[C@H]([C@@H](C)CC)NC(=O)[C@H](C(C)C)NC(=O)[C@H](CC(C)C)NC1=O [SP-221] (Ac-FIAEEVL[Nle][S5]LVI[S5][Nle]ALDAI-NH2; staple 9-13) | 200 to 400 | 15 to 30 | ++++ (≥50: ++++) | ++++ (≥30: ++++) |
| CC[C@H](C)[C@H](NC(=O)[C@H](Cc1ccccc1)NC(C)=O)C(=O)N[C@@H](CC(=O)O)C(=O)N[C@@H](CCC(=O)O)C(=O)N[C@@]1(C)CCCC=CCCC[C@@](C)(C(=O)N[C@@H](CC(C)C)C(=O)N[C@H](C(=O)N[C@H](C(=O)N[C@@H](CCC(=O)O)C(=O)N[C@@H](CCSC)C(=O)N[C@@H](C)C(=O)N[C@@H](C)C(N)=O)[C@@H](C)CC)C(C)C)NC(=O)[C@H](CCSC)NC(=O)[C@H](CC(C)C)NC(=O)[C@H](C(C)C)NC1=O [SP-116] (Ac-FIDE[S5]VLM[S5]LVIEMAA-NH2; staple 5-9) | > 700 | > 30 | +++ (≤25 but <50: +++) | ++++ (≥30: ++++) |
| CCCC[C@H](NC(=O)[C@H](CCC(=O)O)NC(=O)[C@@H](NC(=O)[C@@H](NC(=O)[C@H](CC(C)C)NC(=O)[C@]1(C)CCCC=CCCC[C@](C)(NC(=O)[C@H](CCC(=O)O)NC(=O)[C@H](CC(=O)O)NC(=O)[C@@H](NC(=O)[C@H](Cc2ccccc2)NC(C)=O)[C@@H](C)CC)C(=O)N[C@@H](C(C)C)C(=O)N[C@@H](CC(C)C)C(=O)N[C@@H](CCCC)C(=O)N1)C(C)C)[C@@H](C)CC)C(=O)N[C@@H](C)C(=O)N[C@@H](CC(C)C)C(N)=O [SP-111] (Ac-FIDE[S5]VL[Nle][S5]LVIE[Nle]AL-NH2; staple 5-9) | 200 to 400 | > 30 | ++++ (≥50: ++++) | ++++ (≥30: ++++) |
| CCCC[C@H](NC(=O)[C@H](CCC(=O)O)NC(=O)[C@]1(C)CCCC=CCCCCCC[C@@](C)(NC(=O)[C@H](CCC(=O)O)NC(=O)[C@H](C)NC(=O)[C@@H](NC(=O)[C@H](CC(N)=O)NC(=O)[C@@H](NC(=O)[C@H](CCC(N)=O)NC(=O)[C@]2(C)CCCC=CCCC[C@](C)(NC(=O)[C@H](CC(C)C)NC(=O)[C@H](CCC(=O)O)NC(=O)[C@H](CCC(=O)O)NC(=O)CNC(=O)[C@H](CCC(N)=O)NC(=O)[C@H](CC(C)C)NC(=O)[C@H](CC(C)C)NC(C)=O)C(=O)N[C@@H](CCCNC(=N)N)C(=O)N[C@@H](C)C(=O)N[C@@H](CC(C)C)C(=O)N2)C(C)C)[C@@H](C)CC)C(=O)N[C@@H](C(C)C)C(=O)N[C@@H](CC(C)C)C(=O)N[C@@H](CCCC)C(=O)N[C@@H](CO)C(=O)N[C@@H](CC(C)C)C(=O)N[C@@H](C(C)C)C(=O)N1)C(N)=O [SP-365] (Ac-LLQGEEL[S5]RAL[S5]QVNIAE[R8]VL[Nle]SLV[S5]E[Nle]-NH2; staple 8-12, 19-26) | > 700 | > 30 | +++ (≤25 but <50: +++) | ++++ (≥30: ++++) |

Now from value to compound, other results behind:

| IC50 [1] [nM] | EC50 [2] [µM] | Compound | 18 h Avg % max inhibition at top conc (HIF Rptr-24 hrs normoxia) (μM) [2] | Viability 1% FBS AVG (MTT V3-24 hr Normoxia) (μM) [3] |
| --- | --- | --- | --- | --- |
| ≤ 200 | > 30 | CCCC[C@H](NC(=O)[C@]1(C)CCCC=CCCC[C@](C)(NC(=O)[C@H](CCCC)NC(=O)[C@H](CC(C)C)NC(=O)[C@@H](NC(=O)[C@H](CCC(=O)O)NC(=O)[C@H](C)NC(=O)[C@H](CC(=O)O)NC(=O)[C@@H](NC(=O)[C@H](CC(N)=O)NC(=O)[C@@H](NC(=O)[C@]2(C)CCCC=CCCCCCC[C@@](C)(NC(=O)[C@H](CCC(=O)O)NC(=O)CNC(=O)[C@H](CCC(N)=O)NC(=O)[C@H](CC(C)C)NC(=O)[C@H](CC(C)C)NC(C)=O)C(=O)N[C@@H](CC(C)C)C(=O)N[C@@H](CC(C)C)C(=O)N[C@@H](CCCNC(=N)N)C(=O)N[C@@H](C)C(=O)N[C@@H](CC(C)C)C(=O)N[C@@H](CC(=O)O)C(=O)N2)C(C)C)[C@@H](C)CC)C(C)C)C(=O)N[C@@H](CC(C)C)C(=O)N[C@@H](C(C)C)C(=O)N[C@@H]([C@@H](C)CC)C(=O)N1)C(N)=O [SP-346] (Ac-LLQGE[R8]LLRALD[S5]VNIDAEVL[Nle][S5]LVI[S5][Nle]-NH2; staple 6-13, 23-27) | ++ (≤10 but <25: ++) | ++++ (≥30: ++++) |
| ≤ 200 | > 30 | CCCC[C@H](NC(=O)[C@H](CCC(=O)O)NC(=O)[C@@H](NC(=O)[C@@H](NC(=O)[C@H](CC(C)C)NC(=O)[C@]1(C)CCCC=CCCC[C@](C)(NC(=O)[C@H](CCC(=O)O)NC(=O)[C@H](CC(=O)O)NC(=O)[C@@H](NC(=O)[C@H](CC(N)=O)NC(=O)[C@@H](NC(=O)[C@]2(C)CCCC=CCCCCCC[C@@](C)(NC(=O)[C@H](CCC(=O)O)NC(=O)CNC(=O)[C@H](CCC(N)=O)NC(=O)[C@H](CC(C)C)NC(=O)[C@H](CC(C)C)NC(C)=O)C(=O)N[C@@H](CC(C)C)C(=O)N[C@@H](CC(C)C)C(=O)N[C@@H](CCCNC(=N)N)C(=O)N[C@@H](C)C(=O)N[C@@H](CC(C)C)C(=O)N[C@@H](CC(=O)O)C(=O)N2)C(C)C)[C@@H](C)CC)C(=O)N[C@@H](C(C)C)C(=O)N[C@@H](CC(C)C)C(=O)N[C@@H](CCCC)C(=O)N1)C(C)C)[C@@H](C)CC)C(=O)NCC(N)=O [SP-328] (Ac-LLQGE[R8]LLRALD[S5]VNIDE[S5]VL[Nle][S5]LVIE[Nle]G-NH2; staple 6-13, 19-23) | + (<10: +) | ++++ (≥30: ++++) |
| 400 to 700 | 5 to 15 | CCCC[C@H](NC(=O)[C@H](CCC(=O)O)NC(=O)[C@]1(C)CCCC=CCCCCCC[C@@](C)(NC(=O)[C@H](C)NC(=O)[C@H](CC(=O)O)NC(=O)[C@@H](NC(=O)[C@H](CC(N)=O)NC(=O)[C@@H](NC(=O)[C@H](CCC(N)=O)NC(=O)[C@]2(C)CCCC=CCCC[C@](C)(NC(=O)[C@H](CC(C)C)NC(=O)[C@H](CCC(=O)O)NC(=O)[C@H](CCC(=O)O)NC(=O)CNC(=O)[C@H](CCC(N)=O)NC(=O)[C@H](CC(C)C)NC(=O)[C@H](CC(C)C)NC(C)=O)C(=O)N[C@@H](CCCNC(=N)N)C(=O)N[C@@H](C)C(=O)N[C@@H](CC(C)C)C(=O)N2)C(C)C)[C@@H](C)CC)C(=O)N[C@@H](C(C)C)C(=O)N[C@@H](CC(C)C)C(=O)N[C@@H](CCCC)C(=O)N[C@@H](CO)C(=O)N[C@@H](CC(C)C)C(=O)N[C@@H](C(C)C)C(=O)N1)C(N)=O [SP-362] (Ac-LLQGEEL[S5]RAL[S5]QVNIDA[R8]VL[Nle]SLV[S5]E[Nle]-NH2; staple 8-12, 19-26) | ++++ (≥50: ++++) | ++++ (≥30: ++++) |
| > 700 | > 30 | CCCC[C@H](NC(=O)[C@H](CC(C)C)NC(=O)[C@@H](NC(=O)[C@H](CCC(=O)O)NC(=O)[C@H](CCC(=O)O)NC(=O)[C@H](CC(=O)O)NC(=O)[C@@H](NC(=O)[C@H](CC(N)=O)NC(=O)[C@@H](NC(=O)[C@H](CCC(N)=O)NC(=O)[C@H](CC(=O)O)NC(=O)[C@H](CC(C)C)NC(=O)[C@H](C)NC(=O)[C@]1(C)CCCC=CCCC[C@](C)(NC(=O)CNC(=O)[C@H](CCC(N)=O)NC(=O)[C@H](CC(C)C)NC(=O)[C@H](CC(C)C)NC(C)=O)C(=O)N[C@@H](CCC(=O)O)C(=O)N[C@@H](CC(C)C)C(=O)N[C@@H](CC(C)C)C(=O)N1)C(C)C)[C@@H](C)CC)C(C)C)C(=O)N[C@@]1(C)CCCC=CCCC[C@@](C)(C(=O)N[C@@H](CCCC)C(=O)NCC(N)=O)NC(=O)[C@H]([C@@H](C)CC)NC(=O)[C@H](C(C)C)NC(=O)[C@H](CC(C)C)NC1=O [SP-338] (Ac-LLQG[S5]ELL[S5]ALDQVNIDEEVL[Nle][S5]LVI[S5][Nle]G-NH2; staple 5-9, 23-27) | +++ (≤25 but <50: +++) | ++++ (≥30: ++++) |
